Values of other authors as cited in US20080168569A1, “Non-invasive methods and related compositions for identifying compounds that modify in vivo aggregations of disease-related polypeptides” (priority 2004, published 2008).

Test system: truncated DRPLA proteins that contain an expanded-polyglutamine domain
Settings: in vitro; transglutaminase inhibitors

SMILES	formation of cellular aggregates of truncated DRPLA proteins
NCCSSCCN [cystamine]	inhibit the formation of cellular aggregates
CN(C)c1cccc2c(S(=O)(=O)NCCCCCN)cccc12 [monodansyl cadaverine]	inhibit the formation of cellular aggregates
